# Source: PubChem BioAssay AID248 (DTP/NCI, 2004)
# Values joined by “and” are separate entries in the source; they are usually repeats but may differ in a detail not shown here. Equal entries are not always repeated. Toxic doses and inconclusive results are not listed.
# System: L1210 leukemia ip in BDF1 mice, survival T/C
# Assay: NCI In Vivo Anticancer Drug Screen. Data for tumor model L1210 Leukemia (intraperitoneal) in B6D2F1 (BDF1) mice
# Conditions: endpoint: mean survival time, higher = longer survival
# How it was run: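 Antitumor effect is assessed in tumor-bearing animals. Survival in the compound arm is compared with a vehicle-dosed control arm and expressed as their quotient.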
# [1] = dose: 100.0 mg/kg/injection, schedule: Q01DX001 (ip), vehicle: saline
# [2] = dose: 200.0 mg/kg/injection, schedule: Q01DX001 (ip), vehicle: saline
# [3] = dose: 400.0 mg/kg/injection, schedule: Q01DX001 (ip), vehicle: saline
# [4] = dose: 75.0 mg/kg/injection, schedule: Q01DX001 (ip), vehicle: saline
# [5] = dose: 150.0 mg/kg/injection, schedule: Q01DX001 (ip), vehicle: saline
# [6] = dose: 300.0 mg/kg/injection, schedule: Q01DX001 (ip), vehicle: saline
# [7] = dose: 100.0 mg/kg/injection, schedule: Q04DX002 (ip), vehicle: Klucel (hydroxypropylcellulose) (HPC)
# [8] = dose: 200.0 mg/kg/injection, schedule: Q04DX002 (ip), vehicle: Klucel (hydroxypropylcellulose) (HPC)
# [9] = dose: 100.0 mg/kg/injection, schedule: Q01DX009 (ip), vehicle: saline
# [10] = dose: 200.0 mg/kg/injection, schedule: Q01DX009 (ip), vehicle: saline
# [11] = dose: 50.0 mg/kg/injection, schedule: Q01DX009 (ip), vehicle: saline
# [12] = dose: 100.0 mg/kg/injection, schedule: Q04DX003 (ip), vehicle: saline
# [13] = dose: 200.0 mg/kg/injection, schedule: Q04DX003 (ip), vehicle: saline
# [14] = dose: 100.0 mg/kg/injection, schedule: Q01DX009 (ip), vehicle: Klucel (hydroxypropylcellulose) (HPC)
# [15] = dose: 100.0 mg/kg/injection, schedule: Q04DX003 (ip), vehicle: Klucel (hydroxypropylcellulose) (HPC)
# [16] = dose: 200.0 mg/kg/injection, schedule: Q04DX003 (ip), vehicle: Klucel (hydroxypropylcellulose) (HPC)
# [17] = dose: 400.0 mg/kg/injection, schedule: Q04DX003 (ip), vehicle: Klucel (hydroxypropylcellulose) (HPC)
# [18] = dose: 25.0 mg/kg/injection, schedule: Q01DX009 (ip), vehicle: Klucel (hydroxypropylcellulose) (HPC)
# [19] = dose: 50.0 mg/kg/injection, schedule: Q01DX009 (ip), vehicle: Klucel (hydroxypropylcellulose) (HPC)
# [20] = dose: 100.0 mg/kg/injection, schedule: Q01DX009 (ip), vehicle: saline with Tween-80
# [21] = dose: 200.0 mg/kg/injection, schedule: Q01DX009 (ip), vehicle: saline with Tween-80
# [22] = dose: 100.0 mg/kg/injection, schedule: Q01DX001 (ip), vehicle: carboxymethylcellulose (CMC)
# [23] = dose: 200.0 mg/kg/injection, schedule: Q01DX001 (ip), vehicle: carboxymethylcellulose (CMC)
# [24] = dose: 400.0 mg/kg/injection, schedule: Q01DX001 (ip), vehicle: carboxymethylcellulose (CMC)
# [25] = dose: 400.0 mg/kg/injection, schedule: Q04DX003 (ip), vehicle: saline
structure (smiles),measurement,setting,value
COc1ccc(NC2=CC(=O)C(=O)c3ccccc32)nn1,T/C,[1],91 % of control
same,T/C,[2],89 % of control
same,T/C,[3],95 % of control
O=C(O)c1c(O)cc(=O)oc1-c1ccccc1Cl,T/C,[4],97 % of control
same,T/C,[5],101 % of control
same,T/C,[6],96 % of control
CCOC(=O)C(c1ccccc1)C(NC(C)=O)(C(=O)OCC)C(=O)OCC (stereo unspecified),T/C,[7],114 % of control
same,T/C,[8],104 % of control
same,T/C,"dose: 400.0 mg/kg/injection, schedule: Q04DX002 (ip), vehicle: Klucel (hydroxypropylcellulose) (HPC)",93 % of control
CC1(C)/C(=C\C(=O)O)C2CCC1C2 (stereo unspecified),T/C,[1],103 % of control
same,T/C,[9],91 % of control
same,T/C,"dose: 100.0 mg/kg/injection, schedule: Q04DX003 (ip), vehicle: acetone",106 % of control
same,T/C,[2],97 % of control
same,T/C,[10],90 % of control
same,T/C,"dose: 200.0 mg/kg/injection, schedule: Q04DX003 (ip), vehicle: acetone",93 % of control
same,T/C,[3],105 % of control
same,T/C,"dose: 400.0 mg/kg/injection, schedule: Q01DX009 (ip), vehicle: saline",98 % of control
same,T/C,"dose: 400.0 mg/kg/injection, schedule: Q04DX003 (ip), vehicle: acetone",89 % of control
FC(Cl)C(F)(F)Br (stereo unspecified),T/C,"dose: 75.0 mg/kg/injection, schedule: Q01DX005 (ip), vehicle: saline",95 % of control
same,T/C,"dose: 150.0 mg/kg/injection, schedule: Q01DX005 (ip), vehicle: saline",101 % of control
same,T/C,"dose: 300.0 mg/kg/injection, schedule: Q01DX005 (ip), vehicle: saline",98 % of control
same,T/C,"dose: 600.0 mg/kg/injection, schedule: Q01DX001 (ip), vehicle: acetone",101 % of control
COC1CC(OC2OC(CO)C(O)C(O)C2O)/C(=C\C#N)C(O)C1OC (stereo unspecified),T/C,[11],106 % of control
same,T/C,"dose: 50.0 mg/kg/injection, schedule: Q04DX003 (ip), vehicle: saline",103 % of control
same,T/C,[9],103 % of control
same,T/C,[12],100 % of control
same,T/C,[10],101 % of control
same,T/C,[13],101 % of control
CCOC(=O)c1ccc(OC2CCCCO2)c(OC2CCCCO2)c1 (stereo unspecified),T/C,"dose: 100.0 mg/kg/injection, schedule: Q04DX003 (ip), vehicle: saline with Tween-80",98 % of control
same,T/C,"dose: 200.0 mg/kg/injection, schedule: Q04DX003 (ip), vehicle: saline with Tween-80",98 % of control
same,T/C,"dose: 400.0 mg/kg/injection, schedule: Q04DX003 (ip), vehicle: saline with Tween-80",98 % of control
CC(C)Cc1ccc(C(=O)O)cc1,T/C,[14],94 % of control
same,T/C,[15],97 % of control
same,T/C,"dose: 200.0 mg/kg/injection, schedule: Q01DX009 (ip), vehicle: Klucel (hydroxypropylcellulose) (HPC)",94 % of control
same,T/C,[16],108 % of control
same,T/C,"dose: 400.0 mg/kg/injection, schedule: Q01DX009 (ip), vehicle: Klucel (hydroxypropylcellulose) (HPC)",94 % of control
same,T/C,[17],102 % of control
O=C(O)C(O)c1cccc(Cl)c1 (stereo unspecified),T/C,"dose: 75.0 mg/kg/injection, schedule: Q01DX001 (ip), vehicle: acetone",94 % of control
same,T/C,"dose: 150.0 mg/kg/injection, schedule: Q01DX001 (ip), vehicle: acetone",94 % of control
CC[N+](C)(CC)CC1CC(C)OC1=O (stereo unspecified),T/C,[11],95 % of control
same,T/C,[9],109 % of control
same,T/C,[10],98 % of control
NC(=S)N/N=C\c1c(Cl)[nH]c2ccc(/C=N/NC(N)=S)cc12,T/C,"dose: 50.0 mg/kg/injection, schedule: Q04DX002 (ip), vehicle: Klucel (hydroxypropylcellulose) (HPC)",97 % of control
same,T/C,[7],90 % of control
same,T/C,[8],94 % of control
CCC(C)(C(=O)NO)c1ccccc1 (stereo unspecified),T/C,"dose: 100.0 mg/kg/injection, schedule: Q01DX001 (ip), vehicle: saline with Tween-80",110 % of control
same,T/C,"dose: 200.0 mg/kg/injection, schedule: Q01DX001 (ip), vehicle: saline with Tween-80",101 % of control
O=C(O)CCC(=O)c1ccc2sc3ccccc3c2c1,T/C,[18],106 % of control
same,T/C,[19],100 % of control
same,T/C,[14],97 % of control and 106 % of control
same,T/C,[15],98 % of control
same,T/C,[16],103 % of control
same,T/C,[17],89 % of control
CCCCCCCNc1ccc(C(=O)O)cc1,T/C,"dose: 37.5 mg/kg/injection, schedule: Q01DX009 (ip), vehicle: saline",105 % of control
same,T/C,[4],93 % of control
same,T/C,"dose: 75.0 mg/kg/injection, schedule: Q01DX009 (ip), vehicle: saline",94 % of control
same,T/C,"dose: 75.0 mg/kg/injection, schedule: Q04DX003 (ip), vehicle: saline",105 % of control
same,T/C,[5],104 % of control
same,T/C,"dose: 150.0 mg/kg/injection, schedule: Q01DX009 (ip), vehicle: saline",98 % of control
same,T/C,"dose: 150.0 mg/kg/injection, schedule: Q04DX003 (ip), vehicle: saline",109 % of control
same,T/C,[6],102 % of control
same,T/C,"dose: 300.0 mg/kg/injection, schedule: Q04DX003 (ip), vehicle: saline",102 % of control
CCCNC(=O)Nc1ccc(C(=O)OCC(C)C)cc1,T/C,[20],95 % of control
same,T/C,[21],93 % of control
CCCCCCCCC1OCC(C)(C)C(C(C)C)O1 (stereo unspecified),T/C,"dose: 50.0 mg/kg/injection, schedule: Q01DX001 (ip), vehicle: carboxymethylcellulose (CMC)",102 % of control
same,T/C,[22],104 % of control
same,T/C,[23],107 % of control
same,T/C,[24],104 % of control
CCC[As](=O)(O)CCC,T/C,"dose: 25.0 mg/kg/injection, schedule: Q01DX009 (ip), vehicle: saline",107 % of control
same,T/C,[11],112 % of control
same,T/C,[12],111 % of control
N=NC(=O)c1ccccc1Nc1c(O)[nH]c2ccccc12,T/C,[22],89 % of control
same,T/C,[23],93 % of control
same,T/C,[24],93 % of control
O=C(Nc1cccc(NC(=O)Nc2cccc(C3=NCCN3)c2)c1)Nc1cccc(C2=NCCN2)c1,T/C,"dose: 16.4 mg/kg/injection, schedule: Q01DX Z (ip), vehicle: carboxymethylcellulose (CMC)",121 % of control
same,T/C,"dose: 27.0 mg/kg/injection, schedule: Q01DX Z (ip), vehicle: carboxymethylcellulose (CMC)",156 % of control
same,T/C,"dose: 37.0 mg/kg/injection, schedule: Q01DX Z (ip), vehicle: carboxymethylcellulose (CMC)",121 % of control
same,T/C,"dose: 55.5 mg/kg/injection, schedule: Q01DX Z (ip), vehicle: carboxymethylcellulose (CMC)",123 % of control
same,T/C,"dose: 66.0 mg/kg/injection, schedule: Q01DX Z (ip), vehicle: carboxymethylcellulose (CMC)",107 % of control
same,T/C,"dose: 83.3 mg/kg/injection, schedule: Q01DX Z (ip), vehicle: carboxymethylcellulose (CMC)",121 % of control
same,T/C,"dose: 90.0 mg/kg/injection, schedule: Q01DX Z (ip), vehicle: saline",107 % of control
same,T/C,"dose: 125.0 mg/kg/injection, schedule: Q01DX Z (ip), vehicle: carboxymethylcellulose (CMC)",101 % of control
same,T/C,"dose: 187.5 mg/kg/injection, schedule: Q01DX Z (ip), vehicle: carboxymethylcellulose (CMC)",104 % of control
O=C1OC(c2ccccc2)(c2ccccc2)c2ccc3ccccc3c21,T/C,[20],98 % of control
same,T/C,[21],103 % of control
same,T/C,"dose: 400.0 mg/kg/injection, schedule: Q01DX009 (ip), vehicle: saline with Tween-80",98 % of control
S=C1NCCCS1,T/C,"dose: 12.5 mg/kg/injection, schedule: Q01DX009 (ip), vehicle: Klucel (hydroxypropylcellulose) (HPC)",93 % of control
same,T/C,[18],104 % of control
same,T/C,[19],98 % of control
same,T/C,[14],101 % of control
same,T/C,[15],98 % of control
same,T/C,[16],95 % of control
same,T/C,[17],104 % of control
COc1cc2c(cc1OC)Cc1cc(OC)c(OC)cc1Cc1cc(OC)c(OC)cc1C2,T/C,[12],92 % of control
same,T/C,[13],96 % of control
same,T/C,[25],97 % of control
O=C(O)c1cc(O)c(Br)c(O)c1,T/C,"dose: 75.0 mg/kg/injection, schedule: Q01DX009 (ip), vehicle: other",93 % of control
same,T/C,[12],106 % of control
same,T/C,"dose: 150.0 mg/kg/injection, schedule: Q01DX009 (ip), vehicle: other",96 % of control
same,T/C,[13],101 % of control
same,T/C,[25],95 % of control
